One series concerns the target Nav 1.7 (Homo sapiens (Human), UniProt Q15858). Briefly: in-vitro Nav 1.7 PX data. It is filed as cell-based.
The target in another series is Nav 1.5 (Homo sapiens (Human), UniProt Q14524). Briefly: in-vitro Nav 1.5 PX data. To be noted: read-out: Nav 1.5 PX IC50.

The structures appear in SMILES notation. Where two headings read alike, the source gives them in different places. Bounds are passed on as bounds.

Nav 1.7, sequence (Q15858 whole entry): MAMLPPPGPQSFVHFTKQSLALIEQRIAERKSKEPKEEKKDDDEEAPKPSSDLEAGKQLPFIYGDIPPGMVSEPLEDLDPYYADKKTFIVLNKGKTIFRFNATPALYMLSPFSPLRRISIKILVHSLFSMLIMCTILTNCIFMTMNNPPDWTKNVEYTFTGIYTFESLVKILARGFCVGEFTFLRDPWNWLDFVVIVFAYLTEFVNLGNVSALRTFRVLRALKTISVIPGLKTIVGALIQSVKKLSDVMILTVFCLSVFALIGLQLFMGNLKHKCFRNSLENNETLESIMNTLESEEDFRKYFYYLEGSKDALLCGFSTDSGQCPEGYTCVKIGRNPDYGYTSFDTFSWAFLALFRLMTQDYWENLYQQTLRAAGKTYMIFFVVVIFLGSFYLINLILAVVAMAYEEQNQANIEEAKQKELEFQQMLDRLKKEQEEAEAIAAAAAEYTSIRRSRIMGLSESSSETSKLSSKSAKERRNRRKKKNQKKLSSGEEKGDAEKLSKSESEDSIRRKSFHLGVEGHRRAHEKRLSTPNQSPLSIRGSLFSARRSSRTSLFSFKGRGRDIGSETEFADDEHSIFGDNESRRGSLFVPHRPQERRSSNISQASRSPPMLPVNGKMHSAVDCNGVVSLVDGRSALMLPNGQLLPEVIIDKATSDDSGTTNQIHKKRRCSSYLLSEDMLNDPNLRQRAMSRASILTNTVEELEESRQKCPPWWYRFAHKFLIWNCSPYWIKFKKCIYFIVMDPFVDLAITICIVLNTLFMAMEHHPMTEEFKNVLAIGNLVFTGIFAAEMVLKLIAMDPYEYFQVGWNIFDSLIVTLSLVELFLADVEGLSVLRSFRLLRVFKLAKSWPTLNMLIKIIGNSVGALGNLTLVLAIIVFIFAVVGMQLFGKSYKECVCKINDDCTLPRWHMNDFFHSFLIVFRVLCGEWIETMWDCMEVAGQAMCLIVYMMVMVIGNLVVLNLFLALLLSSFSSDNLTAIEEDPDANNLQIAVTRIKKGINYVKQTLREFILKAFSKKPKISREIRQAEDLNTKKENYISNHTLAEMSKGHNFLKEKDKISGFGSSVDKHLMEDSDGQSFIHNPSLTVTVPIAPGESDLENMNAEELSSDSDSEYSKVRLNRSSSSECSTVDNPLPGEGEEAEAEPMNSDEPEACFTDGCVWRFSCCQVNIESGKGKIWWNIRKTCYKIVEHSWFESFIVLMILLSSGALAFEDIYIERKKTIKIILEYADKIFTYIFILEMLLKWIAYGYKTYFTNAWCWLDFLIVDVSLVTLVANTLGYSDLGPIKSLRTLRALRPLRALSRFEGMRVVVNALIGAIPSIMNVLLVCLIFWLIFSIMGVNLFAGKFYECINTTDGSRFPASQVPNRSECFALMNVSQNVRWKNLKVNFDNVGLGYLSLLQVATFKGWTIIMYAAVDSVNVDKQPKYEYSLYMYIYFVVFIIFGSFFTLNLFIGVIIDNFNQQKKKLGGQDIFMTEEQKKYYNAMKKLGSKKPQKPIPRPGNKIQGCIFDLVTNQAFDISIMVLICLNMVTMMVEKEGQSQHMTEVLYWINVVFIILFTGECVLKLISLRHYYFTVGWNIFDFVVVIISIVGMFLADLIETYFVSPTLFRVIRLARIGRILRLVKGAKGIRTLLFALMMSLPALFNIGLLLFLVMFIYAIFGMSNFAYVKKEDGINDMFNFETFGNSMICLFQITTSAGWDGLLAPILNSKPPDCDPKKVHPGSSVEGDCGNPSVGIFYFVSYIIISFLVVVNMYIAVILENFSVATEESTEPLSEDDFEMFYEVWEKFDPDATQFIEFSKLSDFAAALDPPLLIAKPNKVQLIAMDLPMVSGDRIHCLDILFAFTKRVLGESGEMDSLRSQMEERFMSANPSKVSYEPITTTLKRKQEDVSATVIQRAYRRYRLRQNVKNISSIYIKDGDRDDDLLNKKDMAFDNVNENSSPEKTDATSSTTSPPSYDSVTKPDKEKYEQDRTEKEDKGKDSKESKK
Nav 1.5, sequence (Q14524 whole entry): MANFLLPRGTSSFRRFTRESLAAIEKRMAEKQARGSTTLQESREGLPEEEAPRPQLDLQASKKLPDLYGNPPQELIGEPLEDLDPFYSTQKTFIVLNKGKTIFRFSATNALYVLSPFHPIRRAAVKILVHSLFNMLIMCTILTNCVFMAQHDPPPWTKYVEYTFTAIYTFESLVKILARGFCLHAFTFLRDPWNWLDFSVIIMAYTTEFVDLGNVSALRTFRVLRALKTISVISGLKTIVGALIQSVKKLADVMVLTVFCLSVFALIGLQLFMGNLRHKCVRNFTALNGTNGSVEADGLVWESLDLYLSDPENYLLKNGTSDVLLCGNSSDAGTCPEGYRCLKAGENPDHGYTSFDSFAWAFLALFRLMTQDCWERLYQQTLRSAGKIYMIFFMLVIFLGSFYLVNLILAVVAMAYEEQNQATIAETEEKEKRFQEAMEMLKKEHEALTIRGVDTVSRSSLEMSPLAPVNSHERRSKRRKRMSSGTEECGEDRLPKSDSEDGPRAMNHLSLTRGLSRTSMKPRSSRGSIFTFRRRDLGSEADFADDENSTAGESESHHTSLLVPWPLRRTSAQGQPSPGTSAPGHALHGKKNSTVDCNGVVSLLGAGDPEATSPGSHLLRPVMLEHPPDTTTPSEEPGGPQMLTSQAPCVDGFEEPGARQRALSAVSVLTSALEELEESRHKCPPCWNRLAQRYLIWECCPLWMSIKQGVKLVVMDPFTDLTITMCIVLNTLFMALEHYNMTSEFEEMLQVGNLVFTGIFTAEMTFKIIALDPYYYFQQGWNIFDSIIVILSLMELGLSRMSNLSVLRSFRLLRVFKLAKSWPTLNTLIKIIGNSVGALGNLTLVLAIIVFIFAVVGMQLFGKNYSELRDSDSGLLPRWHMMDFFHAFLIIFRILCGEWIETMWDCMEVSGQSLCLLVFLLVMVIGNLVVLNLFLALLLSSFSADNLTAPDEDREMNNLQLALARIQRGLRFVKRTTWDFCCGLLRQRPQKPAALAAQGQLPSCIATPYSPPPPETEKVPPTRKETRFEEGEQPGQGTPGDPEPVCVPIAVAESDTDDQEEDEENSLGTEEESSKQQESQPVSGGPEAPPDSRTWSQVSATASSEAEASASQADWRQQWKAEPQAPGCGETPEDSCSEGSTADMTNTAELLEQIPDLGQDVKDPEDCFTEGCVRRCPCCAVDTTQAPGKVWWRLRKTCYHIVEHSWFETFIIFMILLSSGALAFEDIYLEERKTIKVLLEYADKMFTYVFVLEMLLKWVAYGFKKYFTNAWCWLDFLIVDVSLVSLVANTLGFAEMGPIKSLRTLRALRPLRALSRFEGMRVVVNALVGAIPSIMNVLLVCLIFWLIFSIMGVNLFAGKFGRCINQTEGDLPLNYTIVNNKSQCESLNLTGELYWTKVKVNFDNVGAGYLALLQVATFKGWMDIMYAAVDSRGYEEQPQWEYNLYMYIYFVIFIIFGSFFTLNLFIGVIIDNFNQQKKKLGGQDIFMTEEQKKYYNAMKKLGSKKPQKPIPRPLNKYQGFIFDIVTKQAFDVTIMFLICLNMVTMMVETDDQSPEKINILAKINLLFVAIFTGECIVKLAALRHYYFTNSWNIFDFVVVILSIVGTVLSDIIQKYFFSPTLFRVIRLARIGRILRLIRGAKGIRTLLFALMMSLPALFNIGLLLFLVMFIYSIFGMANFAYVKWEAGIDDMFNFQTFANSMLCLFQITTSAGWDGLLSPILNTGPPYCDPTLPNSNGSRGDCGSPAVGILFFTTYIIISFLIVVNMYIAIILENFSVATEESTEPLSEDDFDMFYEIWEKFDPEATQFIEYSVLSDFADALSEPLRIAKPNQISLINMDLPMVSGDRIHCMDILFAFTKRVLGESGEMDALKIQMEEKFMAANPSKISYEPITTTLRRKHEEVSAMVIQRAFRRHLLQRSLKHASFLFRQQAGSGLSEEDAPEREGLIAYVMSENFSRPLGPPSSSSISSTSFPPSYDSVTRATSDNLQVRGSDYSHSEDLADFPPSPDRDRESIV

In general, IC50 refers to the concentration at which inhibition is half-maximal. For `COc1cc(-c2cc(C)cc(F)c2)c(C#N)cc1-c1nccc2cc(S(=O)(=O)Nc3ccon3)ccc12` [Example 77, 1-(2-cyano-3′-fluoro-5-methoxy-5′-methyl-4-biphenylyl)-N-3-isoxazolyl-6-isoquinolinesulfonamide], the concentration for half-maximal inhibition (IC50) at Nav 1.7 (PatchXpress (PX), in vitro) was 72.5 nM; at Nav 1.5 (PatchXpress (PX), in vitro) it was greater than 10000 nM.
The corresponding values for `COc1cc(-c2ccc(C)c(Cl)c2)c(C#N)cc1-c1nccc2cc(S(=O)(=O)Nc3ccon3)ccc12` [Example 78, 1-(3′-chloro-2-cyano-5-methoxy-4′-methyl-4-biphenylyl)-N-3-isoxazolyl-6-isoquinolinesulfonamide] are 33 nM and greater than 10000 nM.
With `COc1cc(-c2ccccc2C)c(C#N)cc1-c1nccc2cc(S(=O)(=O)Nc3ccon3)ccc12` [Example 79, 1-(2-cyano-5-methoxy-2′-methyl-4-biphenylyl)-N-3-isoxazolyl-6-isoquinolinesulfonamide], the half-maximal inhibitory concentration (IC50) against Nav 1.7 (PatchXpress (PX), in vitro) was 88 nM; at Nav 1.5 (PatchXpress (PX), in vitro), greater than 10000 nM.
For `COc1cc(-c2ccc(F)c(F)c2)c(C#N)cc1-c1nccc2cc(S(=O)(=O)Nc3ccon3)ccc12` [Example 80, 1-(2-cyano-3′,4′-difluoro-5-methoxy-4-biphenylyl)-N-3-isoxazolyl-6-isoquinolinesulfonamide] the same measures were 28.2 nM and greater than 10000 nM.
For `COc1cc(-c2ccc(Cl)c(C)c2)c(C#N)cc1-c1nccc2cc(S(=O)(=O)Nc3ccon3)ccc12` [Example 82, 1-(4′-chloro-2-cyano-5-methoxy-3′-methyl-4-biphenylyl)-N-3-isoxazolyl-6-isoquinolinesulfonamide] the same measures were 26.1 nM and greater than 10000 nM.
The corresponding values for `COc1cc(-c2ccc(F)c(Cl)c2)c(C#N)cc1-c1nccc2cc(S(=O)(=O)Nc3ccon3)ccc12` [Example 84, 1-(3′-chloro-2-cyano-4′-fluoro-5-methoxy-4-biphenylyl)-N-3-isoxazolyl-6-isoquinolinesulfonamide] are 14.7 nM and greater than 10000 nM.
Turning to `COc1cc(-c2ccc(F)c(C)c2)c(C#N)cc1-c1nccc2cc(S(=O)(=O)Nc3ccon3)ccc12` [Example 85, 1-(2-cyano-4′-fluoro-5-methoxy-3′-methyl-4-biphenylyl)-N-3-isoxazolyl-6-isoquinolinesulfonamide], the IC50 at Nav 1.7 (PatchXpress (PX), in vitro) is 28.8 nM; on Nav 1.5 (PatchXpress (PX), in vitro), greater than 10000 nM.
With `COc1cc(-c2cc(F)cc(Cl)c2)c(C#N)cc1-c1nccc2cc(S(=O)(=O)Nc3ccon3)ccc12` [Example 86, 1-(3′-chloro-2-cyano-5′-fluoro-5-methoxy-4-biphenylyl)-N-3-isoxazolyl-6-isoquinolinesulfonamide], the half-inhibitory concentration (IC50) on Nav 1.7 (PatchXpress (PX), in vitro) was 24.4 nM; on Nav 1.5 (PatchXpress (PX), in vitro), greater than 10000 nM.
Take `COc1cc(-c2ccc(F)cc2)c(C#N)cc1-c1nccc2cc(S(=O)(=O)Nc3ccon3)ccc12` [Example 106, 1-(2-cyano-4′-fluoro-5-methoxy-4-biphenylyl)-N-3-isoxazolyl-6-isoquinolinesulfonamide]: the figures for the IC50 at Nav 1.7 (in-vitro PX data) and on Nav 1.5 (in-vitro PX data) were 62.5 nM and greater than 10000 nM, respectively.
The corresponding values for `COc1cc(-c2cc(F)cc(F)c2)c(C#N)cc1-c1nccc2cc(S(=O)(=O)Nc3ncccn3)ccc12` [Example 107, 1-(2-cyano-3′,5′-difluoro-5-methoxy-4-biphenylyl)-N-2-pyrimidinyl-6-isoquinolinesulfonamide] are 255 nM and greater than 10000 nM.
For `COc1cc(Cl)c(-c2cccc(F)c2)cc1-c1nccc2cc(S(=O)(=O)Nc3nncs3)ccc12` [Example 110, 1-(6-chloro-3′-fluoro-4-methoxy-3-biphenylyl)-N-1,3,4-thiadiazol-2-yl-6-isoquinolinesulfonamide] the same measures were 109 nM and greater than 10000 nM.
On to `COc1cc(-c2cccc(Cl)c2)c(C#N)cc1-c1nccc2cc(S(=O)(=O)Nc3ccon3)ccc12` [Example 111, 1-(3′-chloro-2-cyano-5-methoxy-4-biphenylyl)-N-3-isoxazolyl-6-isoquinolinesulfonamide], for which the concentration for half-maximal inhibition (IC50) against Nav 1.7 (in-vitro PX data) was 21.8 nM; on Nav 1.5 (in-vitro PX data), greater than 10000 nM.
The corresponding values for `COc1cc(-c2cccc(C)c2)c(C#N)cc1-c1nccc2cc(S(=O)(=O)Nc3ccon3)ccc12` [Example 112, 1-(2-cyano-5-methoxy-3′-methyl-4-biphenylyl)-N-3-isoxazolyl-6-isoquinolinesulfonamide] are 39.5 nM and greater than 10000 nM.
For `COc1cc(-c2cccc(F)c2)c(Cl)cc1-c1nncc2cc(S(=O)(=O)Nc3ncccn3)ccc12` [Example 113, 1-(2-chloro-3′-fluoro-5-methoxy-4-biphenylyl)-N-2-pyrimidinyl-6-phthalazinesulfonamide] the same measures were 95 nM and greater than 10000 nM.
The corresponding values for `COc1cc(-c2cc(C)cc(Cl)c2)c(C#N)cc1-c1nccc2cc(S(=O)(=O)Nc3ccon3)ccc12` [Example 114, 1-(3′-chloro-2-cyano-5-methoxy-5′-methyl-4-biphenylyl)-N-3-isoxazolyl-6-isoquinolinesulfonamide] are 28.8 nM and greater than 10000 nM.
For the compound `COc1cc(-c2cccc(C(F)(F)F)c2)c(F)cc1-c1nccc2cc(S(=O)(=O)Nc3ccon3)ccc12` [Example 115, 1-(2-fluoro-5-methoxy-3′-(trifluoromethyl)-4-biphenylyl)-N-3-isoxazolyl-6-isoquinolinesulfonamide], the IC50 on Nav 1.7 (in-vitro PX data) is 13.5 nM; on Nav 1.5 (in-vitro PX data), greater than 10000 nM.
The corresponding values for `COc1cc(-c2cccc(C(F)(F)F)c2)c(C#N)cc1-c1nccc2cc(S(=O)(=O)Nc3ncon3)ccc12` [Example 118, 1-(2-cyano-5-methoxy-3′-(trifluoromethyl)-4-biphenylyl)-N-1,2,4-oxadiazol-3-yl-6-isoquinolinesulfonamide] are 21 nM and greater than 10000 nM.
Regarding `COc1cc(-c2cccc(F)c2)c(Cl)cc1-c1nccc2cc(S(=O)(=O)Nc3cccnn3)ccc12` [Example 120, 1-(2-chloro-3′-fluoro-5-methoxy-4-biphenylyl)-N-3-pyridazinyl-6-isoquinolinesulfonamide], the concentration for half-maximal inhibition (IC50) against Nav 1.7 (in-vitro PX data) is 141 nM; on Nav 1.5 (in-vitro PX data) it was greater than 10000 nM.
The corresponding values for `COc1cc(Cl)c(-c2cccc(F)c2)cc1-c1nccc2cc(S(=O)(=O)Nc3ccon3)ccc12` [Example 121, 1-(6-chloro-3′-fluoro-4-methoxy-3-biphenylyl)-N-3-isoxazolyl-6-isoquinolinesulfonamide] are 91.7 nM and greater than 10000 nM.
As for `COc1cc(Cl)c(-c2cccc(F)c2)cc1-c1nccc2cc(S(=O)(=O)Nc3ncccn3)ccc12` [Example 122, 1-(6-chloro-3′-fluoro-4-methoxy-3-biphenylyl)-N-2-pyrimidinyl-6-isoquinolinesulfonamide], the IC50 at Nav 1.7 (in-vitro PX data) is 112 nM; on Nav 1.5 (in-vitro PX data), greater than 10000 nM.
For `COc1cc(-c2cc(F)cc(F)c2)ccc1-c1nccc2cc(S(=O)(=O)Nc3ncccn3)ccc12` [Example 123, 1-(3′,5′-difluoro-3-methoxy-4-biphenylyl)-N-2-pyrimidinyl-6-isoquinolinesulfonamide] the same measures were 171 nM and greater than 10000 nM.
For the compound `COc1cc(NS(=O)(=O)c2ccc3c(-c4ccc(-c5cc(F)cc(F)c5)cc4OC)nccc3c2)ncn1` [Example 125, 1-(3′,5′-difluoro-3-methoxy-4-biphenylyl)-N-(6-methoxy-4-pyrimidinyl)-6-isoquinolinesulfonamide], the IC50 at Nav 1.7 (in-vitro PX data) was 497 nM; on Nav 1.5 (in-vitro PX data), greater than 10000 nM.
For `COc1cc(-c2cc(F)cc(F)c2)ccc1-c1nccc2cc(S(=O)(=O)Nc3ncon3)ccc12` [Example 127, 1-(3′,5′-difluoro-3-methoxy-4-biphenylyl)-N-1,2,4-oxadiazol-3-yl-6-isoquinolinesulfonamide] the same measures were 106 nM and greater than 10000 nM.
With `COc1cc(-c2cc(F)cc(F)c2)ccc1-c1nccc2cc(S(=O)(=O)Nc3cnsn3)ccc12` [Example 129, 1-(3′,5′-difluoro-3-methoxy-4-biphenylyl)-N-1,2,5-thiadiazol-3-yl-6-isoquinolinesulfonamide], the results for the IC50 against Nav 1.7 (in-vitro PX data) and at Nav 1.5 (in-vitro PX data) were 428 nM and greater than 10000 nM, respectively.
On to `COc1cc(-c2cc(F)cc(F)c2)ccc1-c1nccc2cc(S(=O)(=O)Nc3nc(C)ns3)ccc12` [Example 130, 1-(3′,5′-difluoro-3-methoxy-4-biphenylyl)-N-(3-methyl-1,2,4-thiadiazol-5-yl)-6-isoquinolinesulfonamide], for which the results for the IC50 against Nav 1.7 (in-vitro PX data) and on Nav 1.5 (in-vitro PX data) were 1040 nM and greater than 30000 nM, respectively.
For `COc1cc(-c2cc(F)cc(F)c2)ccc1-c1nccc2cc(S(=O)(=O)Nc3ncc(F)cn3)ccc12` [Example 135, 1-(3′,5′-difluoro-3-methoxy-4-biphenylyl)-N-(5-fluoro-2-pyrimidinyl)-6-isoquinolinesulfonamide] the same measures were 378 nM and greater than 10000 nM.
The corresponding values for `COc1cc(-c2cc(F)cc(F)c2)ccc1-c1nccc2cc(S(=O)(=O)Nc3ncco3)ccc12` [Example 137, 1-(3′,5′-difluoro-3-methoxy-4-biphenylyl)-N-1,3-oxazol-2-yl-6-isoquinolinesulfonamide] are 360 nM and greater than 10000 nM.
The corresponding values for `COc1cc(-c2cc(F)cc(F)c2)ccc1-c1nccc2cc(S(=O)(=O)Nc3cccnn3)ccc12` [Example 138, 1-(3′,5′-difluoro-3-methoxy-4-biphenylyl)-N-3-pyridazinyl-6-isoquinolinesulfonamide] are 251 nM and greater than 10000 nM.
On to `COc1cc(-c2cc(F)cc(F)c2)ccc1-c1nccc2cc(S(=O)(=O)Nc3ccon3)ccc12` [Example 142, 1-(3′,5′-difluoro-3-methoxy-4-biphenylyl)-N-3-isoxazolyl-6-isoquinolinesulfonamide], for which the IC50 against Nav 1.7 (in-vitro Nav 1.7 PX data) is 168 nM; at Nav 1.5 (in-vitro Nav 1.5 PX data), greater than 30000 nM.
For `COc1cc(-c2cccc(F)c2)c(C#N)cc1-c1nccc2cc(S(=O)(=O)Nc3ccncn3)ccc12` [Example 144, 1-(2-cyano-3′-fluoro-5-methoxy-4-biphenylyl)-N-4-pyrimidinyl-6-isoquinolinesulfonamide] the same measures were 106 nM and greater than 10000 nM.
